Assay results: patent US10548898B2, “Quinazoline compounds” (Gilead Sciences, Inc., priority 2014, dated 2020)
Like-named read-outs stand apart in the source and are kept apart here.

Key:
Type in all cases: cell-based
[1] = test system: HIV-1 reverse transcriptase mutant Y181C; assay: High throughput cytopathic effect assay in MT-4 cells, Y181C mutant; conditions: for EC50: Human immunodeficiency virus 1, MT4, 120 h, read-out: MT4 EC50 (nM) against Y181C; for FC against mutant Y181C: fold change of MT4 EC50 versus w.t. assay 2
Summary of the method: (§1)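 MT-4 cells infected 1 h at 37 °C at MOI 0.0005, then plated onto ten-point half-log compound dilutions and incubated 5 days. Cell viability read by CellTiter-Glo luminescence, normalized to AZT and DMSO controls as % CPE protection; EC50 from four-parameter fit.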

[2] = test system: HIV-1 recombinant strain encoding reverse transcriptase mutation K103N; assay: Resistance profile against HIV-1 RT mutants in MT-2 cells, K103N; conditions: ratio of mean EC50 mutant/WT virus
Description: (§2) Compounds were tested for antiviral activity against a panel of NNRTI resistant viruses. A panel of 8 clonal site-directed mutant viruses representing the major resistance development pathways against rilpivirine (“RPV”), efavirenz (“EFV”), and nevirapine (“NVP”), containing both single and double mutations within HIV-1 reverse transcriptase was employed. Further details and background can be found in Janssen et al. J. Med. Chem, 2005, 48, 1901-1909; Das et al., Proc. Nat. Acad. Sci., 2008, vol., 105, no. 5, 1466-1471; and Kuroda et al., Nature Chemistry, 2013, DOI: 10.1038/NCHEM. 1559. […] HIV-1 recombinant strains encoding reverse transcriptase mutations K103N, Y181C, Y188L, G190A, K103N/Y181C, L1001/Y181C, E138K or E138KIM 184V were constructed by site-directed mutagenesis. Wild-type and mutant viruses were prepared by transfecting infectious proviral HXB2-based cDNA clones into MT-2 cells and harvesting the cell supernatants. MT-2 cells were infected with wild-type and mutant HIV-1 strains at a multiplicity of infection (MOI) of 0.005 by gentle mixing for 3 hours at 37° C. and then added at a density of 16,667 cells per well in 50 μL complete RPMI cell culture media (containing 10% fetal bovine serum (FBS) and 10% penicillin-streptomycin) to 96-well plates containing 50 μL of a 3-fold serial dilution of test compounds in RPMI medium. After 5 days of incubation at 37° C. in a humidified incubator in the presence of 5% CO2. 100 μL of Cell Titer-Glo™ Reagent (Promega Biosciences, Inc., Madison, Wis.) was added to each well and the relative light units (RLU) measured on an Envision plate reader. […] The EC50 value was defined as the compound concentration inducing a 50% decrease in virus replication. Data analysis for the antiviral activity observed in MT-2 cells was performed using XL-Fit™ software (IDBS, Guildford, Surrey, UK) to calculate EC50 from an 8-point dose-response curve using the following equation:
(§3) [formula] where y=virus inhibition, x=drug concentration, M=maximum inhibition, H=minimum inhibition and n=Hill coefficient, EC50 values (mean±standard deviation) were calculated from at least three independent experiments performed in triplicate. The level of resistance was calculated as a ratio of the mean EC50 for each mutant/WT virus. Results are disclosed in FIG. 1 and in Tables 3 and 4 below.

[3] = test system: HIV-1 recombinant strain encoding reverse transcriptase mutation K103N/Y181C; assay: Resistance profile against HIV-1 RT mutants in MT-2 cells, K103N/Y181C; conditions: ratio of mean EC50 mutant/WT virus
Description: as §2, §3

[4] = test system: HIV-1 recombinant strain encoding reverse transcriptase mutation Y188L; assay: Resistance profile against HIV-1 RT mutants in MT-2 cells, Y188L; conditions: ratio of mean EC50 mutant/WT virus
Description: as §2, §3

HIV-1 HBX2 (wild type) = assay: High throughput cytopathic effect assay in MT-4 cells, wild type HIV-1
Summary of the method: as §1

[5] = test system: HIV-1 reverse transcriptase mutant K103N; assay: High throughput cytopathic effect assay in MT-4 cells, K103N mutant; conditions: for EC50: Human immunodeficiency virus 1, MT4, 120 h, read-out: MT4 EC50 (nM) against K103N; for FC against mutant K103N: fold change of MT4 EC50 versus w.t. assay 2
Summary of the method: as §1

[6] = test system: HIV-1 recombinant strain encoding reverse transcriptase mutation L100I/Y181C; assay: Resistance profile against HIV-1 RT mutants in MT-2 cells, L100I/Y181C; conditions: ratio of mean EC50 mutant/WT virus
Description: as §2, §3

hERG channels = target: T1, hERG channels (Homo sapiens, UniProt Q12809); assay: hERG assay, whole cell recordings in CHO cell line stably expressing hERG channels; conditions: CHO cells, whole cell patch clamp; greater than values indicate the maximum achievable concentration in the assay
T1 construct: host or cells: CHO cell line stably expressing hERG
Description: AVIVA's CHO cell line, which stably expresses hERG channels, was used for the study. Cells were cultured in DMEM/F12 containing 10% FBS, 1% penicillin/streptomycin and 500 μg/ml G418. Before testing, cells were harvested using Accumax (Innovative Cell Technologies).
External Solution: 2 mM CaCl2; 2 mM MgCl2; 4 mM KCl; 150 mM NaCl; 10 mM Glucose; 10 mM HEPES; 305-315 mOsm; pH 7.4 (adjusted with 5M NaOH.)
Internal Solution: 140 mM KCl; 10 mM MgCl2; 6 mM EGTA; 5 mM HEPES-Na; 5 mM ATP-Mg; 295-305 mOsm; pH 7.25 (adjusted with 1M KOH).
Whole cell recordings were performed using PX 7000A (Axon Instruments) with AVIVA's SealChip™ technology. Cells were voltage clamped at a holding potential of −80 mV. The hERG current was then activated by a depolarizing step to −50 mV for 300 ms. This first step at −50 mV was used as a baseline for measuring peak amplitude of the tail current. Next, a voltage step to +20 mV was applied for 5 s to activate the channels. Finally, a step back to −50 mV for 5 s removed activation and the deactivating tail current was recorded.
All test articles were prepared from 10 mM DMSO stock solutions. Solutions were mixed by sonication for 20 min, followed by vigorous vortexing. Prior to testing, compounds were diluted to test concentrations in glass vials using External Solution. Dilutions were prepared no longer than 20 min prior to use.
After achieving whole cell configuration, cells were monitored for 90 s to assess stability and then washed with External Solution for 66 s. The voltage protocol was then applied to the cells every 12 s throughout the procedure. Only stable cells with recording parameters above threshold were allowed to enter the drug addition procedure.
External solution containing 0.1% DMSO (vehicle) was applied to the cells to establish a baseline. After allowing the current to stabilize for 3 to 10 min, test articles were applied. Test article solutions were added to cells in 4 separate additions. Cells were kept in test solution until effect of the test article reached steady state, to a maximum of 12 min. Next, 1 μM cisapride (positive control) was added. Finally, washout with External Solution was performed until the recovery current reached steady state.
Data analysis was performed using DataXpress (Axon Instruments), Clampfit (Axon Instruments) and Origin (OriginLab Corporation) software. The greater than values in Table 5 indicate the maximum achievable concentration in the assay (e.g., compounds achieving their solubility limit).

[7] = test system: HIV-1 recombinant strain encoding reverse transcriptase mutation Y181C; assay: Resistance profile against HIV-1 RT mutants in MT-2 cells, Y181C; conditions: ratio of mean EC50 mutant/WT virus
Description: as §2, §3

[8] = test system: HIV-1 recombinant strain encoding reverse transcriptase mutation E138K/M184V; assay: Resistance profile against HIV-1 RT mutants in MT-2 cells, E138K/M184V; conditions: ratio of mean EC50 mutant/WT virus
Description: Compounds were tested for antiviral activity against a panel of NNRTI resistant viruses. A panel of 8 clonal site-directed mutant viruses representing the major resistance development pathways against rilpivirine (“RPV”), efavirenz (“EFV”), and nevirapine (“NVP”), containing both single and double mutations within HIV-1 reverse transcriptase was employed. Further details and background can be found in Janssen et al. J. Med. Chem, 2005, 48, 1901-1909; Das et al., Proc. Nat. Acad. Sci., 2008, vol., 105, no. 5, 1466-1471; and Kuroda et al., Nature Chemistry, 2013, DOI: 10.1038/NCHEM. 1559. […] HIV-1 recombinant strains encoding reverse transcriptase mutations K103N, Y181C, Y188L, G190A, K103N/Y181C, L1001/Y181C, E138K or E138KIM 184V were constructed by site-directed mutagenesis. Wild-type and mutant viruses were prepared by transfecting infectious proviral HXB2-based cDNA clones into MT-2 cells and harvesting the cell supernatants. MT-2 cells were infected with wild-type and mutant HIV-1 strains at a multiplicity of infection (MOI) of 0.005 by gentle mixing for 3 hours at 37° C. and then added at a density of 16,667 cells per well in 50 μL complete RPMI cell culture media (containing 10% fetal bovine serum (FBS) and 10% penicillin-streptomycin) to 96-well plates containing 50 μL of a 3-fold serial dilution of test compounds in RPMI medium. After 5 days of incubation at 37° C. in a humidified incubator in the presence of 5% CO2. 100 μL of Cell Titer-Glo™ Reagent (Promega Biosciences, Inc., Madison, Wis.) was added to each well and the relative light units (RLU) measured on an Envision plate reader. […] The EC50 value was defined as the compound concentration inducing a 50% decrease in virus replication. […]
[formula] where y=virus inhibition, x=drug concentration, M=maximum inhibition, H=minimum inhibition and n=Hill coefficient, EC50 values (mean±standard deviation) were calculated from at least three independent experiments performed in triplicate. The level of resistance was calculated as a ratio of the mean EC50 for each mutant/WT virus. […]

[9] = test system: HIV-1 recombinant strain encoding reverse transcriptase mutation G190A; assay: Resistance profile against HIV-1 RT mutants in MT-2 cells, G190A; conditions: ratio of mean EC50 mutant/WT virus
Description: as §2, §3

[10] = Human immunodeficiency virus 1, MT4, 120 h, MT-4 cells, 5 days, cytopathic effect, Cell TiterGlo, read-out: MT4 EC50 (nM) against w.t.
[11] = Human immunodeficiency virus 1, MT4, read-out: MT4 EC50 (nM) against w.t. assay 2

T1 sequence (Q12809 whole entry): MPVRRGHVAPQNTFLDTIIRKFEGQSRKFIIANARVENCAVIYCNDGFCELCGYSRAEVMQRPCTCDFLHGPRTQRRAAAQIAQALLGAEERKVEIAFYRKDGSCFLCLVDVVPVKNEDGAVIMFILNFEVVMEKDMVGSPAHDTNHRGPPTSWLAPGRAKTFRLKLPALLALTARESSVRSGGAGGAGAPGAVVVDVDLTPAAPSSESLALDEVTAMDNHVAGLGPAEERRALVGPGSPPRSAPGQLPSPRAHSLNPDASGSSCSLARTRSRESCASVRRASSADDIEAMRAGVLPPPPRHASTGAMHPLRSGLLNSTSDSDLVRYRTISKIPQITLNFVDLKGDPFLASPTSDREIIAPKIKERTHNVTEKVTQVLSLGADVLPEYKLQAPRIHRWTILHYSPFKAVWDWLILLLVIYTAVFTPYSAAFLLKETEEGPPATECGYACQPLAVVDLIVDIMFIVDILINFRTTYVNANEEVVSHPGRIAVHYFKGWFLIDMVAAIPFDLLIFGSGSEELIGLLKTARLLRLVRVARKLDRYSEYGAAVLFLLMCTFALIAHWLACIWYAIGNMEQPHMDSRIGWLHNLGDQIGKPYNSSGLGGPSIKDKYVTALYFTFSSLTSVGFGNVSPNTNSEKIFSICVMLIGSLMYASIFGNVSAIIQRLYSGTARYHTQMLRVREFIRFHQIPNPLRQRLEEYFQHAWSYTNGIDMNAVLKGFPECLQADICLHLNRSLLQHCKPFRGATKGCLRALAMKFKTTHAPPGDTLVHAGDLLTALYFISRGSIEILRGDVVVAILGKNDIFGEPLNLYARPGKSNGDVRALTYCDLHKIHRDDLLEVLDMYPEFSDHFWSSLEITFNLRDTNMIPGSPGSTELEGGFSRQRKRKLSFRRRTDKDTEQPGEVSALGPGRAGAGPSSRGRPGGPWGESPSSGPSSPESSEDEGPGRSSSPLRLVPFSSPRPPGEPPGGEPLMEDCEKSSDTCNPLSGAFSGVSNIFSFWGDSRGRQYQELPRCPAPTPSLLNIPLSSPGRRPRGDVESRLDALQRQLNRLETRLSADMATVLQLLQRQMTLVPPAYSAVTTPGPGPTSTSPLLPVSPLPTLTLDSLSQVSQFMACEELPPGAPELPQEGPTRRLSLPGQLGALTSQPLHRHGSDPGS

| SMILES | EC50 [1] [nM] | FC against mutant Y181C [1] | Biology resistance panel-low throughput fold change (FC) K103N [2] | Biology resistance panel-low throughput fold change (FC) K103N/Y181C [3] | Biology resistance panel-low throughput fold change (FC) Y188L [4] | EC50 (HIV-1 HBX2 (wild type); [10]) [nM] | EC50 (HIV-1 HBX2 (wild type); [11]) [nM] | EC50 [5] [nM] | FC against mutant K103N [5] | Biology resistance panel-low throughput fold change (FC) L100I/Y181C [6] | hERG (hERG channels) [µM] | Biology resistance panel-low throughput fold change (FC) Y181C [7] | Biology resistance panel-low throughput fold change (FC) E138K/M184V [8] | Biology resistance panel-low throughput fold change (FC) G190A [9] |
| --- | --- | --- | --- | --- | --- | --- | --- | --- | --- | --- | --- | --- | --- | --- |
| Cc1cc(/C=C/C#N)cc(C)c1Nc1ccnc(Nc2ccc(C#N)cc2)n1 [Rilpivirine, reference compound] | 3.8 | 3.1 | 1.0 | 7.7 | 22.8 | 0.9 | 1.3 | 1.5 | 1.2 | 18.1 | 0.5 | 4.6 | 3.0 | 0.8 |
| Cc1cc(/C=C/C#N)cc(C)c1-c1cccc2c(N)nc(Nc3ccc(C#N)cc3)nc12 [Compound 2, (E)-4-((4-Amino-8-(4-(2-cyanovinyl)-2,6-dimethylphenyl)quinazolin-2-yl)amino)benzonitrile] | 10.9 | 3.0 | 0.9 | 4.1 | 10.0 | 3.7 | 3.6 | 4 | 1.1 | 1.6 | >1 | 4.0 | 5.0 | 1.6 |
